Results taken from patent US8344146B2, “Inhibitor of DD-peptidase and its use as antibiotic or anticancer drug” (Narodowy Instytut Zdrowia Publicznego-Panstwowy Zaklad …, priority 2007, dated 2013).
Values after ≈ are worked out from the molar mass of the structure shown.

Legend:
[1] = Inhibitor characteristics: solubility; assay type: physicochemical
Text: • 1.) Solid yellow in colour. • 2.) Solubility. The inhibitor is soluble in PBS pH 7.2-8.0; soluble in an aqueous environment with low levels of K^+, Na^+. It also dissolves in methanol, DMSO, but degrades in these solvents.

β-lactamase = assay: Inhibitor stability in a β-lactamase environment; assay type: biochemical
Description: Determination of Inhibitor Stability in a β-Lactamase Environment.
A method of evaluation inhibitor stability was designed using a combination of the above two methods. An initial incubation of the inhibitor with β-lactamase was performed, and then the reagents for determining DD-peptidase activity inhibition were added. The absorbance of the experimental sample was 0.05, whereas for the control sample (DD-peptidase) it was 0.35. […] It is not hydrolysed by β-lactamase.

[2] = tested on: class A β-lactamase (penicillinase, Penase); assay: β-lactamase inhibitor activity, nitrocefin method; assay type: biochemical; conditions: 482 nm, 30 min preincubation at 37° C.
Description: Determination of β-Lactamase Inhibitor Activity Using the Nitrocefin Method (O'Callaghan et al. 1972)^2.
reagents used in the assay: 0.1 mM nitrocefin solution containing 0.5 mg nitrocefin (Glaxo), 0.5 cm^3 DMSO (Fluka), 9.5 cm^3 0.1 M PBS pH 7.0; class A β-lactamase (penicillinase, Penase, 5×10^6 IU/ml, Bacto).
20 mm^3 of the examined inhibitor in 0.1 M PBS pH 7.0 were supplemented with 10 mm^3 β-lactamase, incubated for 30 min. at 37° C. Next, 30 mm^3 of 0.1 mM nitrocefin solution were added, and 430 mm^3 of 0.1M PBS pH 7.0. The samples were incubated for 10 min. at 37° C. and evaluated spectrophotometrically at 482 nm. The molar extinction coefficient was 15000 M^−1·cm^−1.

[3] = tested on: Candida albicans ATCC 10231; assay: Antifungal activity analysis, disc on Sabourand medium; assay type: cell-based; conditions: discs with 1 mg, 35° C. for 24 h; inhibitor fractions following stage 2 of purification
Description: A Petri dish with solid Sabourand medium with 4% glucose was inoculated with a Candida albicans ATCC 10231 suspension, at 0.02 McF density. Tissue discs soaked in the inhibitor solution were then placed on the medium (1 mg). The incubation was performed at 35° C. for 24 h.

DD-peptidase R39 [4] = target: T1, DD-peptidase R39 (Actinomadura sp., UniProt P39045); assay: DD-peptidase R39 activity inhibition (ID50); assay type: biochemical; conditions: DD-peptidase R39, purified inhibitor; read-out: ID50 (M), molar concentration of inhibitor which inhibits 50% of enzyme activity
T1 construct: extracellular DD-peptidase R39 produced by Actinomadura sp; R39; gift: Prof; Jean-Maria Ghuysen; host or cells: Actinomadura sp; R39 (natural producer, secreted)
T1 sequence (P39045 50-538): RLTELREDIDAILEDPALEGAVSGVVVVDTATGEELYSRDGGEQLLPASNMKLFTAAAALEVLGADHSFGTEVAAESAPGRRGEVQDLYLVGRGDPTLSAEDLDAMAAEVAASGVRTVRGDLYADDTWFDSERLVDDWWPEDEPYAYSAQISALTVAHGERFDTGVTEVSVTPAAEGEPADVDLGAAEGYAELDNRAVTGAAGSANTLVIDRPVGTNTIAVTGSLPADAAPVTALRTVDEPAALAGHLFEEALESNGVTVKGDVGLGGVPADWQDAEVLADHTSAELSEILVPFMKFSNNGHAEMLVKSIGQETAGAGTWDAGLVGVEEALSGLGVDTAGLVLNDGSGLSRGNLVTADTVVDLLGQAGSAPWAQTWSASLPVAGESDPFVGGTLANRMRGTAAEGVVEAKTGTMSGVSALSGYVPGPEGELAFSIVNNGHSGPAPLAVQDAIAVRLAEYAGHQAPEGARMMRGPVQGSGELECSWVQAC

DD-peptidase R39 [5] = target: T1, DD-peptidase R39; assay: Life of the inhibitor-enzyme complex, R39; assay type: biochemical, Actinomadura sp. R39
Description: (§1) The Life of the Inhibitor-Enzyme Complex was Also Determined.
(§2) The incubation was performed from several to several dozen hours of each enzyme and inhibitor (as described above). Next, the reaction mixture was added, and determinations were performed.

[6] = tested on: Staphylococcus aureus ATCC 6538P; assay: MIC, serial dilutions on solid media; assay type: cell-based; conditions: ATCC6538P, MH II agar, 16 hours at 35° C., inhibitor fractions purified on ion-exchange column
Description: (§3) The antibacterial activity of the compound in question was determined using serial dilutions on solid media (MIC value determination) and using the spot-diffusion protocol. […] Standard bacterial strains used in the analysis:
(§4) A Petri dish was loaded with 0.25 ml of the sample in water and topped with MH II agar medium (Muller Hinton II) to 5 ml. The antibiotic concentration was 0.2 mg/ml medium. Additionally, a control without the antibiotic was made containing 5 ml of MH II. Using a densitometer, bacterial suspensions were made in NaCl solution containing 0.5 McF (10^8 CFU/ml), and subsequently dilutions thereof were made.
(§5) The following dilution series was made: • 10^4 CFU/ml NaCl for strains 6, 7, 8, 9 • 10^5 CFU/ml Nan for strains 1, 2, 3, 4, 5, 10, 11
(§6) After the medium set, 2 μl of bacterial suspension of each strain was inoculated onto the medium yielding 10^2 CFU/ml for strains 6, 7, 8, 9 and 10^3 CFU/ml for strains 1, 2, 3, 4, 5, 10, 11. Each suspension was loaded onto each plate. the incubation was performed for 16 hours at 35° C.

[7] = tested on: Escherichia coli NCTC 8196; assay: MIC, serial dilutions on solid media; assay type: cell-based; conditions: NCTC8196, MH II agar, 16 hours at 35° C., inhibitor fractions purified on ion-exchange column
Description: as §3, §4, §5, §6

[8] = tested on: Burkholderia cepacia ATCC 25416; assay: MIC, serial dilutions on solid media; assay type: cell-based; conditions: ATCC25416, MH II agar, 16 hours at 35° C., inhibitor fractions purified on ion-exchange column
Description: as §3, §4, §5, §6

[9] = tested on: Escherichia coli ATCC 25922; assay: MIC, serial dilutions on solid media; assay type: cell-based; conditions: ATCC25922, MH II agar, 16 hours at 35° C., inhibitor fractions purified on ion-exchange column
Description: as §3, §4, §5, §6

[10] = tested on: Enterococcus faecalis ATCC 29219; assay: MIC, serial dilutions on solid media; assay type: cell-based; conditions: ATCC29219, MH II agar, 16 hours at 35° C., inhibitor fractions purified on ion-exchange column
Description: as §3, §4, §5, §6

[11] = tested on: Staphylococcus aureus NCTC 4163; assay: MIC, serial dilutions on solid media; assay type: cell-based; conditions: NCTC4163, MH II agar, 16 hours at 35° C., inhibitor fractions purified on ion-exchange column
Description: as §3, §4, §5, §6

[12] = tested on: Klebsiella pneumoniae ATCC 13883; assay: MIC, serial dilutions on solid media; assay type: cell-based; conditions: ATCC13883, MH II agar, 16 hours at 35° C., inhibitor fractions purified on ion-exchange column
Description: as §3, §4, §5, §6

[13] = tested on: Proteus vulgaris NCTC 4635; assay: MIC, serial dilutions on solid media; assay type: cell-based; conditions: NCTC4635, MH II agar, 16 hours at 35° C., inhibitor fractions purified on ion-exchange column
Description: as §3, §4, §5, §6

[14] = tested on: Bordetella bronchiseptica ATCC 4617; assay: MIC, serial dilutions on solid media; assay type: cell-based; conditions: ATCC4617, MH II agar, 16 hours at 35° C., inhibitor fractions purified on ion-exchange column
Description: as §3, §4, §5, §6

[15] = tested on: Stenotrophomonas maltophilia ATCC 13637; assay: MIC, serial dilutions on solid media; assay type: cell-based; conditions: ATCC13637, MH II agar, 16 hours at 35° C., inhibitor fractions purified on ion-exchange column
Description: as §3, §4, §5, §6

[16] = tested on: Acinetobacter baumanii ATCC 19606; assay: MIC, serial dilutions on solid media; assay type: cell-based; conditions: Acinetobacter baumannii, ATCC19606, MH II agar, 16 hours at 35° C., inhibitor fractions purified on ion-exchange column
Description: as §3, §4, §5, §6

[17] = tested on: Proteus vulgaris NCTC 4635; assay: Spot-diffusion method, growth inhibition zones; assay type: cell-based; conditions: NCTC4635, 0.4 mg inhibitor per disc
Description: (§7) Inhibitor activity was also determined using the spot-diffusion method.
(§8) The analysis was performed using: Proteus vulgaris NCTC 4635, Bordetella bronchiseptica ATCC 4617, Stenotrophomonas maltophilia ATCC 13637. 24 bacterial cultures were used to make suspensions containing 0.2 McF, which was then diluted 100-fold. 0.1 ml of such a mixture was then placed on a dish with Muller-Hinton medium. Discs containing the examined inhibitor fractions were placed and incubated at 35° C. The determinations were carried out at 15 and 18 hours.
(§9) The following growth inhibition zones were obtained using 0.4 mg inhibitor per disc: […]

[18] = tested on: Bordetella bronchiseptica ATCC 4617; assay: Spot-diffusion method, growth inhibition zones; assay type: cell-based; conditions: ATCC4617, 0.4 mg inhibitor per disc
Description: as §7, §8, §9

[19] = tested on: Stenotrophomonas maltophilia ATCC 13637; assay: Spot-diffusion method, growth inhibition zones; assay type: cell-based; conditions: ATCC13637, 0.4 mg inhibitor per disc
Description: as §7, §8, §9

DD-peptidase R61 [20] = target: T2, DD-peptidase R61 (Streptomyces sp., UniProt P15555); assay: DD-peptidase R61 activity inhibition (ID50); assay type: biochemical; conditions: DD-peptidase R61, purified inhibitor; read-out: ID50 (M), molar concentration of inhibitor which inhibits 50% of enzyme activity
T2 construct: DD-peptidase R61 produced by Streptomyces sp; R61; gift: Prof; Jean-Maria Ghuysen; host or cells: Streptomyces sp; R61 (natural producer)
T2 sequence (P15555 32-380): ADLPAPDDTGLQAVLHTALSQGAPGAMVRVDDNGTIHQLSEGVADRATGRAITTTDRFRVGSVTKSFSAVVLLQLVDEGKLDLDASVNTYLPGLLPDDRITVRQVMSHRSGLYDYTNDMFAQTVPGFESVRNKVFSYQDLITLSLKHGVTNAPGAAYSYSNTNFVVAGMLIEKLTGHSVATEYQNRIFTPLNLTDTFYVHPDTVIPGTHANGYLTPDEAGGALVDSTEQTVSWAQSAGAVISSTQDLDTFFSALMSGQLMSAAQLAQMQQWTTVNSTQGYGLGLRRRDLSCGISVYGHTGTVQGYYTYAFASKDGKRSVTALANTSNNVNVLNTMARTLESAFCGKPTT

DD-peptidase R61 [21] = target: T2, DD-peptidase R61; assay: Life of the inhibitor-enzyme complex, R61; assay type: biochemical, Streptomyces sp. R61
Description: as §1, §2

## O=C1C=C2CC(C(=O)O)NC=C2C=C1O (stereo not drawn) [inhibitor, 7-hydroxy-6-oxo-2,3,4,6-tetrahydroisochinolin-3-carboxylic acid]
[1]; PBS pH 7.2-8.0
  solubility in PBS pH 7.2-8.0: soluble
[1]; aqueous, low levels of K+, Na+
  solubility in an aqueous environment with low levels of K+, Na+: soluble
[1]; ethyl acetate, methylene chloride, chloroform, amyl acetate, acetonitrile
  solubility in ethyl acetate, methylene chloride, chloroform, amyl acetate, acetonitrile: not soluble
[1]; methanol, DMSO
  solubility in methanol, DMSO: dissolves
  stability in methanol, DMSO: degrades
β-lactamase; 24 h incubation in β-lactamase at room temperature
  stability of DD-peptidase inhibitory activity in the presence of class A β-lactamase: completely stable
β-lactamase; initial incubation with β-lactamase, then DD-peptidase 64-575 II inhibition
  stability in a β-lactamase environment: stable in a β-lactamase environment
[2]
  inhibition of class A β-lactamase: did not inhibit
[3]
  antifungal activity against Candida albicans ATCC 10231: does not exhibit antifungal activity
DD-peptidase R39 [4]
  IC50: 0.00045 M
DD-peptidase R39 [5]
  life of the inhibitor-DD-peptidase R 39 complex: 3.5 h
[6]
  MIC: > 200 µg/mL
[7]
  MIC: > 200 µg/mL
[8]
  MIC: > 200 µg/mL
[9]
  MIC: > 200 µg/mL
[10]
  MIC: > 200 µg/mL
[11]
  MIC: > 200 µg/mL
[12]
  MIC: > 200 µg/mL
[13]
  MIC: 200 µg/mL (≈ 965 µM)
[14]
  MIC: 200 µg/mL (≈ 965 µM)
[15]
  MIC: 200 µg/mL (≈ 965 µM)
[16]
  MIC: > 200 µg/mL
[17]; after 15 h
  zone of inhibition at 400 µg/disc: 20 mm
[17]; after 18 h
  zone of inhibition at 400 µg/disc: 19 mm
[18]; after 15 h
  zone of inhibition at 400 µg/disc: 19 mm
[18]; after 18 h
  zone of inhibition at 400 µg/disc: 19 mm
[19]; after 15 h
  zone of inhibition at 400 µg/disc: 16 mm
[19]; after 18 h
  zone of inhibition at 400 µg/disc: 15 mm
DD-peptidase R61 [20]
  IC50: 0.000675 M
DD-peptidase R61 [21]
  life of the inhibitor-DD-peptidase R 61 complex: about 33 hours
